9 compounds from BindingDB's records for patent US20250353864 (Blossomhill Therapeutics, 2025) can be followed below.

The target of assay [1] is Epidermal growth factor receptor [L858R] (Homo sapiens, UniProt P00533, L858R). The assay can be described thus: Biochemical Assays for Inhibition of Wild-Type and Mutant EGFRs. As to the method:
(§1) Briefly, specific kinase/substrate pairs along with required cofactors were prepared in reaction buffer; 20 mM Hepes pH 7.5, 10 mM […], 1 mM EGTA, 0.02% Brij35, 0.02 mg/ml BSA, 0.1 mM Na3VO4, 2 mM DTT, 1% DMSO. Compounds were delivered into the reaction, followed […] later by addition of a mixture of ATP (Sigma, St. Louis MO) and 33P ATP (Perkin Elmer, Waltham MA) to a final concentration of 10 μM. Reactions were carried out at room temperature for 120 min, followed by spotting of the reactions onto P81 ion exchange filter paper (Whatman Inc., Piscataway, NJ). Unbound phosphate was removed by extensive washing of filters in 0.75% phosphoric acid. […] IC50 values and curve fits were obtained using Prism (GraphPad Software).

In assay [2] the target is Epidermal growth factor receptor [L858R,T790M,C797S] (Homo sapiens, UniProt P00533, C797S/L858R/T790M). Described as above. As to the method: as §1
Epidermal growth factor receptor [L858R,T790M,C797S], sequence (P00533 25-1210 T790M/C797S/L858R limits assumed): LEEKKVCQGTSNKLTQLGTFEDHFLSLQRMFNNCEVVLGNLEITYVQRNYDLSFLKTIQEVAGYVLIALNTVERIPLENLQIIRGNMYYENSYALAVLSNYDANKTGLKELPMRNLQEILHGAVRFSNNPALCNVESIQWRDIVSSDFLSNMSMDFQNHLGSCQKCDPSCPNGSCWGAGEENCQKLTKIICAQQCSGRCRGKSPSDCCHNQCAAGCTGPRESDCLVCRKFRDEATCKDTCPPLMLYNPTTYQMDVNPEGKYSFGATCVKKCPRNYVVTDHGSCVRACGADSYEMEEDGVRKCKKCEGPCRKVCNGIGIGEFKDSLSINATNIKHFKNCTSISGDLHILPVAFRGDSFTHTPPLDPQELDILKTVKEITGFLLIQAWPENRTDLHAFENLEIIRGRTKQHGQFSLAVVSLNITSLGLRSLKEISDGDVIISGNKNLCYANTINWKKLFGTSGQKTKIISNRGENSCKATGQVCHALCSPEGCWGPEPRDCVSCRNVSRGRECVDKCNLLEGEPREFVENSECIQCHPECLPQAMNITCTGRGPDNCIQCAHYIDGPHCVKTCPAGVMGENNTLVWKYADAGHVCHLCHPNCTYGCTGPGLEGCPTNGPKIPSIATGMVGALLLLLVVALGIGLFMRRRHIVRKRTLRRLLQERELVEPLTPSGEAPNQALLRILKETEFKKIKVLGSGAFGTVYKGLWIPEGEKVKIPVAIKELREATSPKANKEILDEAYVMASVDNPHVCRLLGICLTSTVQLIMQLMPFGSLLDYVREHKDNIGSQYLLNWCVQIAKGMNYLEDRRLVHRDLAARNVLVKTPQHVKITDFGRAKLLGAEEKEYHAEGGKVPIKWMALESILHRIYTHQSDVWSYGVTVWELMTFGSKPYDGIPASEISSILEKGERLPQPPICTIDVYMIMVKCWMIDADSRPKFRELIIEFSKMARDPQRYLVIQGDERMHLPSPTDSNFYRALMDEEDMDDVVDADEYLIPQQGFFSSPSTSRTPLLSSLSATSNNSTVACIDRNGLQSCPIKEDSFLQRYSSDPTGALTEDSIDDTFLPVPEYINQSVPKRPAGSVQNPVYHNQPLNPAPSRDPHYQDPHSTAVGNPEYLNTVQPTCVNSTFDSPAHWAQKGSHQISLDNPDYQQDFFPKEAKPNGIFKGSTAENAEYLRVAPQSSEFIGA
Assay [3] has as its target Epidermal growth factor receptor [T790M,L858R] (Homo sapiens, UniProt P00533, L858R/T790M). Described as above. The procedure: as §1
Assay [4] addresses Dual specificity protein kinase CLK2 (Homo sapiens, UniProt P49760). The experiment in a line: Inhibition of CLK, CLK2, CLK3 and CLK4 Kinase Activity Evaluated at Nanosyn. As to the method:
(§2) Table 3: Kinase protein and substrate were pre-diluted in the HEPES assay buffer (100 mM HEPES, pH 7.5, 0.01% Triton X-100, 0.1% BSA, 5 mM MgCl2, […] DTT, […], […] Beta-Glycerophosphate) dispensed into 384 well plate (5 μL per well). Control samples (0%-inhibition in the absence of inhibitor, DMSO only) and 100%-inhibition (in the absence of enzyme) were assembled in replicates of six and were used to calculate %-inhibition in the presence of compounds. Test compounds were added to the protein samples by acoustic dispensing (Labcyte Echo550). Concentration of DMSO was equalized to 1% in all samples. Reactions were initiated by addition of ATP by acoustic dispensing (Labcyte Echo550) and incubated according to assay specific incubation time. After incubation. 5 μL of Promega ADP-Glo reagent was added and incubated for 40 minutes. After 40 minutes, 10 uL of Promega kinase detection reagent was added. After 10 min of incubation with Kinase detection reagent, the luminescence was read on microplate reader (Biotek Synergy).

Assay [5] concerns the target Dual specificity protein kinase CLK3 (Homo sapiens, UniProt P49761). Described as above. As to the method: as §2
Assay [6] concerns the target Dual specificity protein kinase CLK1 (Homo sapiens, UniProt P49759). The description is as above. The procedure: as §2
Assay [7] addresses Dual specificity protein kinase CLK4 (Homo sapiens, UniProt Q9HAZ1). The assay is described as above. As to the method:
as §2

Assay [8] addresses Epidermal growth factor receptor (Homo sapiens, UniProt P00533). The assay can be described thus: Biochemical Assays for Inhibition of Wild-Type and Mutant EGFRs. The procedure:
as §1

Epidermal growth factor receptor, sequence (P00533 whole entry): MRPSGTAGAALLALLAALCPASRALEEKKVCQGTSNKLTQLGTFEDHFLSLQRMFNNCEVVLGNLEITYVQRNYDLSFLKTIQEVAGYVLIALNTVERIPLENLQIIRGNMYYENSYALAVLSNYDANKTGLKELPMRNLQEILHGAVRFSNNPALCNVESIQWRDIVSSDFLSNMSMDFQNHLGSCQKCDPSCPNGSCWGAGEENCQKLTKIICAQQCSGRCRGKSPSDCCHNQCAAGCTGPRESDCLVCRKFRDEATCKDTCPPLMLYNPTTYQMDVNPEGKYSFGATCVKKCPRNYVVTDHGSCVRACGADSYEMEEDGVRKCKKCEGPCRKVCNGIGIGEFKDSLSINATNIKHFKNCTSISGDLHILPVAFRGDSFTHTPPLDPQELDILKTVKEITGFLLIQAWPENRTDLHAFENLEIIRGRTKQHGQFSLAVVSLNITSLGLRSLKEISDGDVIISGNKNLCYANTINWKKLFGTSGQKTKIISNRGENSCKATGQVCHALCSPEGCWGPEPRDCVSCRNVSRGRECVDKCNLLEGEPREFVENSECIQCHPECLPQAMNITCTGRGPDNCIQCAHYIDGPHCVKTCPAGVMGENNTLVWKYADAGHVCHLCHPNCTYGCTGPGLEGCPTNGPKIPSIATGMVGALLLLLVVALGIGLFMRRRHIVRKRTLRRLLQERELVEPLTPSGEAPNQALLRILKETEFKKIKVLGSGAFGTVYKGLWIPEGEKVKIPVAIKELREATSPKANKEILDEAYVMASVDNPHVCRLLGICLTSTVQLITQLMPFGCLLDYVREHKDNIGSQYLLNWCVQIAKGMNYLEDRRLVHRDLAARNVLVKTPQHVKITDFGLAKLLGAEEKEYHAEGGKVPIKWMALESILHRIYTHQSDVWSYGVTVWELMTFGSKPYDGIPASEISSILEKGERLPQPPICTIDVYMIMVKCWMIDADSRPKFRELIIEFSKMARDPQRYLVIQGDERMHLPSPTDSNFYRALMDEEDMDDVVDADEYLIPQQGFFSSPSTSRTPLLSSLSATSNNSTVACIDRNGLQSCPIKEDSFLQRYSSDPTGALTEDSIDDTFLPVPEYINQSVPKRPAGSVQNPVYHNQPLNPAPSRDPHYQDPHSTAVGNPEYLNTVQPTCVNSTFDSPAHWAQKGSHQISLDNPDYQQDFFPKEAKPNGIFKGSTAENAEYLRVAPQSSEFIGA
Epidermal growth factor receptor [T790M,L858R], sequence (P00533 25-1210 T790M/L858R limits assumed): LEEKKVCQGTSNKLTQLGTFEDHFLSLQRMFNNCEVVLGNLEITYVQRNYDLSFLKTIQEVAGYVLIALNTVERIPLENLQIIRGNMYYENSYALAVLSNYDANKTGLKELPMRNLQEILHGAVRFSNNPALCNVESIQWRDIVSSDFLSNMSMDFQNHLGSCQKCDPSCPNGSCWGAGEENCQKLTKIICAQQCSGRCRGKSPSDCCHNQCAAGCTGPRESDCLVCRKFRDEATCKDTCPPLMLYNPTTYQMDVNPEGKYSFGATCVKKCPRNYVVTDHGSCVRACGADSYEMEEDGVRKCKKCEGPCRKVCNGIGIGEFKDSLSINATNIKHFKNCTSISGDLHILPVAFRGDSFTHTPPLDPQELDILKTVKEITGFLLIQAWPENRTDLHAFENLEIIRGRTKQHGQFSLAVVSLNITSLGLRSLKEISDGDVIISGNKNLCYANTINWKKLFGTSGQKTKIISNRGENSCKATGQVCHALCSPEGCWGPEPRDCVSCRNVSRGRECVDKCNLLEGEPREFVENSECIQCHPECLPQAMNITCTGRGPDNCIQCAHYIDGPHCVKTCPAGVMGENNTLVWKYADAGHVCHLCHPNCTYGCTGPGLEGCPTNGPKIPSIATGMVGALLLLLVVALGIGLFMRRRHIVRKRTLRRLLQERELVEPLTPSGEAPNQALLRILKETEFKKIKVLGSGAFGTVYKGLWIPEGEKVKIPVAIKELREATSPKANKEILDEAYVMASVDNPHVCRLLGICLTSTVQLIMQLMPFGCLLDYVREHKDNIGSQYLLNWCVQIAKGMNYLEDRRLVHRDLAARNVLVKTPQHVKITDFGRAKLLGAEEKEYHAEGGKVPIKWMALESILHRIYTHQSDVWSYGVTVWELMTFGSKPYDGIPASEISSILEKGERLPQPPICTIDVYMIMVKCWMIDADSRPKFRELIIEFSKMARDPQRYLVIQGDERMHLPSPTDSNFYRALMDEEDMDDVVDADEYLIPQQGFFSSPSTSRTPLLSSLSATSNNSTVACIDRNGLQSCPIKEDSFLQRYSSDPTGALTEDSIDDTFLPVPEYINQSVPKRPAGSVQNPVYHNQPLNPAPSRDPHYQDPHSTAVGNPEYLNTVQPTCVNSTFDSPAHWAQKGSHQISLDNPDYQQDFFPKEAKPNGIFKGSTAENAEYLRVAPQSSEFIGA
Epidermal growth factor receptor [L858R], sequence (P00533 25-1210 L858R limits assumed): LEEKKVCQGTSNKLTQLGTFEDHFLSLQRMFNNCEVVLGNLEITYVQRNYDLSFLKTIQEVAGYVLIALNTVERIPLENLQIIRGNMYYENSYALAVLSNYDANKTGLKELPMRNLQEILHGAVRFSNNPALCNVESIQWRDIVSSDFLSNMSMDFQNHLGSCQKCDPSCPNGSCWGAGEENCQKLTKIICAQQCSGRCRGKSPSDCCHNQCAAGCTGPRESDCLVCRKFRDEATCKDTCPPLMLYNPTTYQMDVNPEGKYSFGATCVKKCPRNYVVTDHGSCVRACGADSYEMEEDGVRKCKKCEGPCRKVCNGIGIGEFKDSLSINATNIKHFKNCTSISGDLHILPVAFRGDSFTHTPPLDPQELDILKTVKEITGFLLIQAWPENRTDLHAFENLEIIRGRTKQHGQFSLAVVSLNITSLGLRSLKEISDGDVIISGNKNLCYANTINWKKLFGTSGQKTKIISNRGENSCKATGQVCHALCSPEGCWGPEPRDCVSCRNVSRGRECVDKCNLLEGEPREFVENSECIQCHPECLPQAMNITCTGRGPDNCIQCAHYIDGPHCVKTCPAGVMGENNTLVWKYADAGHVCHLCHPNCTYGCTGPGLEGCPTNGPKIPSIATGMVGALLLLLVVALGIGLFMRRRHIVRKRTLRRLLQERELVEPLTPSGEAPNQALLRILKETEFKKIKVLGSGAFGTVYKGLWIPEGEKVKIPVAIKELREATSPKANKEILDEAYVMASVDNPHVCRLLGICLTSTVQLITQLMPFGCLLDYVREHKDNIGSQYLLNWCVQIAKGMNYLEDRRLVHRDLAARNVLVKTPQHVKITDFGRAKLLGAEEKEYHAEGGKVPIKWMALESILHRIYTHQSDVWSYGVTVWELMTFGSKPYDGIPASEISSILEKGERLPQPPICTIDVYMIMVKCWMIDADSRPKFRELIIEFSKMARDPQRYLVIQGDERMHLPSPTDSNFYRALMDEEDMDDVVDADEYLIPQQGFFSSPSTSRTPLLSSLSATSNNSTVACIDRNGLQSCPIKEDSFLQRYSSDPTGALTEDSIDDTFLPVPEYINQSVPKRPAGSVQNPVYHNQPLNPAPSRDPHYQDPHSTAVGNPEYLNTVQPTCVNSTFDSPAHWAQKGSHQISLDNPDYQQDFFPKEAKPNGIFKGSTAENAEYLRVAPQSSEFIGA

What is called IC50 is the point on the concentration scale where inhibition reaches its midpoint. `Cc1nn(C)c2c1/C=C/c1n[nH]c3ccc(cc13)-c1c(C)nn(C)c1OCCN(C)C2` [US20250353864, Example 47]: the IC50 was 822 nM in assay [1]; 170 nM in assay [2]; 79.3 nM in assay [3]; 48.3 nM in assay [4]; 1000 nM in assay [5]; 9.92 nM in assay [6]. In addition, the IC50 in assay [7] turned out to be 2.7 nM.
In the case of `Cc1nn(C)c2c1/C=C/c1n[nH]c3ccc(cc13)-c1cnn(C)c1CN(C)C[C@H](C)O2` (single isomer, unassigned) [US20250353864, Example 97], the IC50 in assay [1] is 132 nM; in assay [2], 28.5 nM; in assay [8], 413 nM; in assay [3], 10.8 nM.
For `Cc1c2c(nn1[C@H]1CCN(C)C[C@@H]1O)OCCCOc1c(cnn1C)-c1ccc3[nH]nc(c3c1)/C=C/2` (racemic) [US20250353864, Example 83], in that order: 19 nM, 5.29 nM, 61.5 nM and 1.48 nM.
As to `CCc1nn(C)c2c1/C=C/c1n[nH]c3ccc(cc13)-c1cnn(C)c1OCCCO2` [US20250353864, Example 10], the IC50 in assay [1] was found to be 181 nM; in assay [2], 42.2 nM; in assay [8] it was 973 nM.
On to `Cc1c2c(nn1CCN1CCCC1)CN(C)C[C@H](C)Oc1c(cnn1C)-c1ccc3[nH]nc(c3c1)/C=C/2` [US20250353864, Example 89], for which the IC50 in assay [1] worked out at 4.66 nM; in assay [2], 0.45 nM; in assay [8], 64 nM; in assay [3] it was 0.06 nM.
For `CCOc1nn(CCO)c2c1/C=C/c1n[nH]c3ccc(cc13)-c1cnn(C)c1OC1CCCN(C2)C1C` (stereo not given) [US20250353864, Example 242] the same measures were 124 nM, 4.93 nM, 381 nM and 9.27 nM.
Regarding `Cc1c2c(nn1CCN1CCCC1)OCCOC(C)c1c(cnn1C)-c1ccc3[nH]nc(c3c1)/C=C/2` (stereo not given) [US20250353864, Example 84], the half-inhibitory concentration (IC50) in assay [1] worked out at 285 nM; in assay [2], 28.2 nM; in assay [8] it was 1080 nM; in assay [3], 30.8 nM.
In the case of `Cc1ccc2c(n1)/C=C/c1n[nH]c3ccc(cc13)-c1cnn(C)c1O[C@@H](C)CCO2` [US20250353864, Example 39], the figures for the IC50 in assay [1], in assay [2] and in assay [8] were 222 nM, 35.3 nM and 1070 nM, respectively.
Turning to `CCOc1nn(CCO)c2c1/C=C/c1n[nH]c3ccc(cc13)-c1cnn(C)c1O[C@H](C)[C@H]1CCCN1C2` (single isomer, unassigned) [US20250353864, Example 241], the IC50 in assay [2] worked out at 0.28 nM; in assay [8] it was 0.4 nM.
